These results are taken from US20090203734A1, “F1F0-ATPASE INHIBITORS AND RELATED METHODS” (The Regents of the University of Michigan, priority 2008, published 2009).

The structures appear in SMILES notation. pEC50: −log10 of the molar value. Some results are limits rather than exact numbers.

Experiment [1] has as its target T1, bovine F1Fo-ATPase (Bos taurus, UniProt P13621).
T1 construct: bovine F1Fo-ATPase present in submitochondrial particles (SMPs); from tissue
Briefly: ATP hydrolysis by F1Fo-ATPase in bovine submitochondrial particles (SMPs). The format is biochemical.

For experiment [2], the target named is T1, bovine F1Fo-ATPase. Description: ATP synthesis by F1Fo-ATPase in bovine submitochondrial particles (SMPs). Format: biochemical.
For experiment [3], the system named is Jurkat T cells. Description: Early superoxide (O2-, ROS) response in Jurkat T cells. The format is cell-based. As to conditions: Homo sapiens, O2- response 1 h following incubation with drug. On the procedure:
(§1) Since an early mitochondrial superoxide (O2^−) mediates apoptosis induced by Bz-423, the O2^− response of cells 1 h following incubation with drug was examined, as well as cell death at 24 h, as previously described (see, e.g., Blatt, N. B., et al., 2002 J Clin Invest 110, 1123-1132; incorporated herein by reference in its entirety).

In experiment [4] the test system is Jurkat T cells. Briefly: Cell death in Jurkat T cells. As to conditions: Homo sapiens, cell death at 24 h. The format is cell-based. On the procedure: as §1
The subject of experiment [5] is Ramos B cells. Briefly: Early superoxide (O2-, ROS) response in Ramos B cells. Format: cell-based. As to conditions: Homo sapiens, O2- response 1 h following incubation with drug. The method, then:
as §1

Experiment [6] concerns Ramos B cells. Briefly: Cell death in Ramos B cells. Format: cell-based. As to conditions: Homo sapiens, cell death at 24 h. On the procedure: as §1
Setting [7] is: bovine SMPs, drug 0-300 μM, read-out: ATPase activity EC50, Hydrolysis.
The mark [8] stands for this setting: read-out: ATPase activity EC50, Synthesis.

One may read the pEC50 as the negative decadic logarithm of the EC50, by convention in mol/L. For the compound `O=C1CN=C(c2ccccc2Cl)c2cc([N+](=O)[O-])ccc2N1` [Cz, clonazepam], the pEC50 at bovine F1Fo-ATPase [1] (setting [7]) was 3.62; at bovine F1Fo-ATPase [2] (setting [8]), 3.92.

In the case of `CN1C(=O)CN=C(c2ccccc2)c2cc(Cl)ccc21` [Dz, diazepam], the pEC50 in the experiment on Jurkat T cells [3] was 3.70; in the experiment on Jurkat T cells [4], 3.77; with Ramos B cells [5], 3.77; at bovine F1Fo-ATPase [1], under 3.52; in the experiment with Ramos B cells [6], 3.60; on bovine F1Fo-ATPase [2] (ATPase activity EC50, Synthesis) it was 3.68.

With `CN1C(=O)CN=C(c2ccc(Cl)cc2)c2cc(Cl)ccc21` [Compound 4-Cl-Dz, 4-chlorodiazepam], the pEC50 at bovine F1Fo-ATPase [1] (setting [7]) is under 3.52; at bovine F1Fo-ATPase [2] (setting [8]), 3.68.

Turning to `CN1C(=O)C(Cc2ccc3ccccc3c2)N=C(c2ccc(O)cc2)c2cc(Cl)ccc21` (stereo not drawn) [Bz-423], the pEC50 at bovine F1Fo-ATPase [1] (setting [7]) is 5.05; on bovine F1Fo-ATPase [2] (setting [8]), 5.26.
